Among the data in patent publication US10870647B2, “Imidazopyridine derivative, method for preparing same, and pharmaceutical composition containing same as active ingredient for preventing or treating cancer” (DAEGU-GYEONGBUK MEDICAL INNOVATION FOUNDATION, priority 2016, dated 2020) are remaining binding values, retold here.

Holding throughout (test): Kinase selectivity, scanMAX Kinase assay panel (DiscoverX), % control at 1 uM
Holding throughout (assay type): binding

Assay [1] has as its target T1, scanMAX Kinase assay panel (Homo sapiens, UniProt P42336, M1043I).
T1 construct: purchased DiscoverX
Conditions: PIK3CA (M1043I); 1 uM; read-out: Percent Control (%). In outline:
(§1)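 Activity was called for kinases showing % control under 35, calculated from compound signal relative to positive and negative controls. Each compound screened at 1 uM against the DiscoverX scanMAX panel.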

Assay [2] has as its target T2, scanMAX Kinase assay panel (Homo sapiens, UniProt P07949, V804M).
T2 construct: purchased DiscoverX
The settings on record: RET (V804M); 1 uM; read-out: Percent Control (%). Summed up:
as §1

The target of assay [3] is T3, scanMAX Kinase assay panel (Homo sapiens, UniProt O00506).
T3 construct: purchased DiscoverX
The settings on record: YSK1; 1 uM; read-out: Percent Control (%). In outline:
as §1

Assay [4] concerns the target T4, scanMAX Kinase assay panel (Homo sapiens, UniProt Q6PHR2).
T4 construct: purchased DiscoverX
T4 sequence (Q6PHR2 1-472): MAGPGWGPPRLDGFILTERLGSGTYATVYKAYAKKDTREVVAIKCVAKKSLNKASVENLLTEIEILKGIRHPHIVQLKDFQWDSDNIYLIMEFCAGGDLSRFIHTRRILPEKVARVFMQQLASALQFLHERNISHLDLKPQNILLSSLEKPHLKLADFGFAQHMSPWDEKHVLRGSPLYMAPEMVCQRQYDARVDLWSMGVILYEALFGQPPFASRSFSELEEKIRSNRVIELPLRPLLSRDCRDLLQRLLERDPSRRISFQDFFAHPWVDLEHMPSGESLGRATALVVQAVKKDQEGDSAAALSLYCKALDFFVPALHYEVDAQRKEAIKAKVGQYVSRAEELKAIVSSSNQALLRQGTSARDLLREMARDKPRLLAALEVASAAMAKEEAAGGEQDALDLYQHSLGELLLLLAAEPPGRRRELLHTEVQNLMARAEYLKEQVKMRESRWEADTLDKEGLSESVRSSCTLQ
The settings on record: ULK3; 1 uM; read-out: Percent Control (%). Summed up: as §1

In assay [5] the target is T5, scanMAX Kinase assay panel (Homo sapiens, UniProt Q8NG66).
T5 construct: purchased DiscoverX
T5 sequence (Q8NG66 1-645): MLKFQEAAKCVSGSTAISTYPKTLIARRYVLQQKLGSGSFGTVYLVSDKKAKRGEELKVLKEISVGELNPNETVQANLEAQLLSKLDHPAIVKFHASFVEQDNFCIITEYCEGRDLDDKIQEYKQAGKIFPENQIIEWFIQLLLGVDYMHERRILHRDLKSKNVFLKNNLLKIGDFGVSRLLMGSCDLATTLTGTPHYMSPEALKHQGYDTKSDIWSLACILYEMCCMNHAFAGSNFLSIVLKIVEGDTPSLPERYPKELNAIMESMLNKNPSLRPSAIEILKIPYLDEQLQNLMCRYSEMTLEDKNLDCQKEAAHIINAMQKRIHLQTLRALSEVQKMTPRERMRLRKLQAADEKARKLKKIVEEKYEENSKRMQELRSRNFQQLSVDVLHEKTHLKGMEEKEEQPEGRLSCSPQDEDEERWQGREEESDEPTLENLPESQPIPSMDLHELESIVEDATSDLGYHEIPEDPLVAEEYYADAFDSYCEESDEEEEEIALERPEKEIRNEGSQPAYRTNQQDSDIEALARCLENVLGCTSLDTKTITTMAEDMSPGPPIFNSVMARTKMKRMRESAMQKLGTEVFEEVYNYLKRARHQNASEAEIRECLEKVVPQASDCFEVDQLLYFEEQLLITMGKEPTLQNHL
Conditions: NEK11; 1 uM; read-out: Percent Control (%). Summed up: as §1

Assay [6] deals with T6, scanMAX Kinase assay panel (Homo sapiens, UniProt O14578).
T6 construct: purchased DiscoverX
The settings on record: CIT; 1 uM; read-out: Percent Control (%). In outline: as §1

Assay [7] deals with T7, scanMAX Kinase assay panel (Homo sapiens, UniProt O15146).
T7 construct: purchased DiscoverX
T7 sequence (O15146 24-869): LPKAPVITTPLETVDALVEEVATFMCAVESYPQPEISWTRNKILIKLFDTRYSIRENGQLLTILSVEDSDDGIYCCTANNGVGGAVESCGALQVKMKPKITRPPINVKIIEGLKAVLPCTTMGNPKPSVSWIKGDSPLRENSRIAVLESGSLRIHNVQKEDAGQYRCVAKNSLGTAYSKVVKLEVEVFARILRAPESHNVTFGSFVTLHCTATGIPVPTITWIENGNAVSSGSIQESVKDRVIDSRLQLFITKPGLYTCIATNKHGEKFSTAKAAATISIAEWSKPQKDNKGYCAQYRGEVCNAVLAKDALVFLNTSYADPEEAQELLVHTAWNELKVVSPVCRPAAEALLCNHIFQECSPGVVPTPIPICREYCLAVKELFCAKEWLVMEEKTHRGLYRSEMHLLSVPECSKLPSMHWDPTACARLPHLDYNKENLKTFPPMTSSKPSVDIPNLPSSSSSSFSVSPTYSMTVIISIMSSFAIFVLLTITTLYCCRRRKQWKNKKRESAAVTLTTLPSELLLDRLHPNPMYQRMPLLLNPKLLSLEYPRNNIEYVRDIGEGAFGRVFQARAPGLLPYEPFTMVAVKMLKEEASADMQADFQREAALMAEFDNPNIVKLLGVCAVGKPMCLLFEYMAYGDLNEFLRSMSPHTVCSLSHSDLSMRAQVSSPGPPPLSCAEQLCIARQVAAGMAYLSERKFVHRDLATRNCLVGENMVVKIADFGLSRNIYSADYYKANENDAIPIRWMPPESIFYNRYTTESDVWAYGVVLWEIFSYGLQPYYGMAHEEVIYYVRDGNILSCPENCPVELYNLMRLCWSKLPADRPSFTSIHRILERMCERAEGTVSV
Conditions: MUSK; 1 uM; read-out: Percent Control (%). Summed up:
as §1

Assay [8] addresses T8, scanMAX Kinase assay panel (Homo sapiens, UniProt Q9Y2H1).
T8 construct: purchased DiscoverX
The settings on record: NDR2; 1 uM; read-out: Percent Control (%). Summed up: as §1

Assay [9] has as its target T9, scanMAX Kinase assay panel (Homo sapiens, UniProt P00533).
T9 construct: purchased DiscoverX
The settings on record: EGFR; 1 uM; read-out: Percent Control (%). In outline:
as §1

T1 sequence (P42336 whole entry M1043I): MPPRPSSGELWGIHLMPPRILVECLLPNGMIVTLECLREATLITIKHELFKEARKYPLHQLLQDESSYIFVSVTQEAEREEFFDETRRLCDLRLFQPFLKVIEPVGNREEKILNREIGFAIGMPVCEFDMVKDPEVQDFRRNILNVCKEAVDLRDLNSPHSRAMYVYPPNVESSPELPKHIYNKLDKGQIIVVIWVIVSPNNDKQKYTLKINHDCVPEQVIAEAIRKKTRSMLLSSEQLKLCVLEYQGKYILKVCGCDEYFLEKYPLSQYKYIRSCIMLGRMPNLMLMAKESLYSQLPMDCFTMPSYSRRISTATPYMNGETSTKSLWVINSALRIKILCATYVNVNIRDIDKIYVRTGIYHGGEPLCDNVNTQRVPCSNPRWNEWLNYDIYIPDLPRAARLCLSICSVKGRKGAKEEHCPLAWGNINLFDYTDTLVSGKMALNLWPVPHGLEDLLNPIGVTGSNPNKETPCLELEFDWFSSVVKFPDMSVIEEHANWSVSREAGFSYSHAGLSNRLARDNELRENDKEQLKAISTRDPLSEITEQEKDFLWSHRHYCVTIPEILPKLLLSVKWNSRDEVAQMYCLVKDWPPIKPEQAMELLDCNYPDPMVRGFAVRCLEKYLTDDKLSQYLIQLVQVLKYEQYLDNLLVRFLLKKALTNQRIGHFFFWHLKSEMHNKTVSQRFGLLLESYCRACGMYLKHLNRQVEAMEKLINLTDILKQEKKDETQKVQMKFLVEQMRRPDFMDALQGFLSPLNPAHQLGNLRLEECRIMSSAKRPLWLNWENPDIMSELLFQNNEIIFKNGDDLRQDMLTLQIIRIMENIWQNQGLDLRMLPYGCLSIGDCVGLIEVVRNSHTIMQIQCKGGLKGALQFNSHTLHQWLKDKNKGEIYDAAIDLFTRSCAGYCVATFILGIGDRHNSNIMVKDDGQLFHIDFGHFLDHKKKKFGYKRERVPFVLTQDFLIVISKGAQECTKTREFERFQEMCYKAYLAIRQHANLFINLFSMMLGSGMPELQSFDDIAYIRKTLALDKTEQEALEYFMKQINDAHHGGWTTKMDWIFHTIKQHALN
T6 sequence (O14578 whole entry): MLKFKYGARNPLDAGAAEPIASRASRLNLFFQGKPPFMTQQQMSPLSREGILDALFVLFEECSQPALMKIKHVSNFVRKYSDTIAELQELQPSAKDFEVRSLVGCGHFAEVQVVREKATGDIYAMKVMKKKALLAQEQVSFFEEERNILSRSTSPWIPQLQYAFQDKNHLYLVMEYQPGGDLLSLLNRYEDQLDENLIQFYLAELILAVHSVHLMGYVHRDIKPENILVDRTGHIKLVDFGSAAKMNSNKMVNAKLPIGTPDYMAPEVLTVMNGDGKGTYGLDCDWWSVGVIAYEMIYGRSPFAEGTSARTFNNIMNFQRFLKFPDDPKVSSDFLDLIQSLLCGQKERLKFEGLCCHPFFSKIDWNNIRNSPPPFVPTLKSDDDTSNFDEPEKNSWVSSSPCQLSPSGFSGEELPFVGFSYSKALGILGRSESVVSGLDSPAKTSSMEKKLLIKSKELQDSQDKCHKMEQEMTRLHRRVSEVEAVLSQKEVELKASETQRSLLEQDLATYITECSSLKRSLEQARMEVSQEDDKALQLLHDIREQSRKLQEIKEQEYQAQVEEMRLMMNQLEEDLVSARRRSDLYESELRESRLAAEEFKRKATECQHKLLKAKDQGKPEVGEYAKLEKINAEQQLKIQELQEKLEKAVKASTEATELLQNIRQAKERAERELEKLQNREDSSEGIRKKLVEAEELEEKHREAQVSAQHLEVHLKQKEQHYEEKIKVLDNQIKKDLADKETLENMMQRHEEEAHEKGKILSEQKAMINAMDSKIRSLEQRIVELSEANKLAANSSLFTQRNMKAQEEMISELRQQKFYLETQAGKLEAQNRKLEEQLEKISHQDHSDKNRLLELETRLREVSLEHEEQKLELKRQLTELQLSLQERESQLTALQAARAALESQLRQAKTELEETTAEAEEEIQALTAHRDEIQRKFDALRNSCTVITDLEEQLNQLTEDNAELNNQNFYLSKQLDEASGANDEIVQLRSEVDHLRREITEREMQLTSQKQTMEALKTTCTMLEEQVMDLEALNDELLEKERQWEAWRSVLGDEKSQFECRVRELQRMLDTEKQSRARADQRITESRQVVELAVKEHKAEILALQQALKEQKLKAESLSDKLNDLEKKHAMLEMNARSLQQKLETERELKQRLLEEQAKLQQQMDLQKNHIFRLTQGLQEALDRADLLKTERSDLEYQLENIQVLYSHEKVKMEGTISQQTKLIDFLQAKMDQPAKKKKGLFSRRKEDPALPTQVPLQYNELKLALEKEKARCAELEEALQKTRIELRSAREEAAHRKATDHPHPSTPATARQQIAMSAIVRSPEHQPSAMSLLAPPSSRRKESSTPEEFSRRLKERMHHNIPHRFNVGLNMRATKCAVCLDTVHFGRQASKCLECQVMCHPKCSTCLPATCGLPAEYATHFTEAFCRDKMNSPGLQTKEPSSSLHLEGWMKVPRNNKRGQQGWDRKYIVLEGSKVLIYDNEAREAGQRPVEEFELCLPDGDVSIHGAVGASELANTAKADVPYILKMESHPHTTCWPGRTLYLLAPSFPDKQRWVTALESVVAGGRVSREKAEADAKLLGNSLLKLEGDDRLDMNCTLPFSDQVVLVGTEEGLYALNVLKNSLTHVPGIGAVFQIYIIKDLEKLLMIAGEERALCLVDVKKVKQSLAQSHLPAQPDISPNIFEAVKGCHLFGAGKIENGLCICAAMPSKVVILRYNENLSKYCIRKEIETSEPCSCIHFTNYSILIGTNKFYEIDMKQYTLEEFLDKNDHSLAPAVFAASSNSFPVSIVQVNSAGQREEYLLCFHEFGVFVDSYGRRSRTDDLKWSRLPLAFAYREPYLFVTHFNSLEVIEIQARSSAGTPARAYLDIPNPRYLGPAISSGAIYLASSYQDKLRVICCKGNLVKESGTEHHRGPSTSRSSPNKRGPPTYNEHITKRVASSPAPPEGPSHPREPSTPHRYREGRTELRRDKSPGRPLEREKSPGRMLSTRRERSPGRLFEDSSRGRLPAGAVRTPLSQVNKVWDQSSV
T8 sequence (Q9Y2H1 whole entry): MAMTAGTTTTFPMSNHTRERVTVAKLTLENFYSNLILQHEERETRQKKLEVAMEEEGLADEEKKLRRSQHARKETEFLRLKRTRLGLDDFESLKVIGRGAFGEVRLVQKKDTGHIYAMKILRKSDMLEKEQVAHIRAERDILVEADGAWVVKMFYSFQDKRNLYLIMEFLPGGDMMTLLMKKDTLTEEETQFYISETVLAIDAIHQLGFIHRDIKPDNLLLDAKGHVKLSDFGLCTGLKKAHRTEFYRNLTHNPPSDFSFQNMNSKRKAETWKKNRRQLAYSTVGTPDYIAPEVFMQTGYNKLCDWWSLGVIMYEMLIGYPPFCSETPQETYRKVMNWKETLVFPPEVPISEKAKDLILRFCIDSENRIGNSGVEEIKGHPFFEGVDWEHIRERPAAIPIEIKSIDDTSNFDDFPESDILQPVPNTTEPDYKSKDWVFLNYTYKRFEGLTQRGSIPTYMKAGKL
T9 sequence (P00533 25-1210): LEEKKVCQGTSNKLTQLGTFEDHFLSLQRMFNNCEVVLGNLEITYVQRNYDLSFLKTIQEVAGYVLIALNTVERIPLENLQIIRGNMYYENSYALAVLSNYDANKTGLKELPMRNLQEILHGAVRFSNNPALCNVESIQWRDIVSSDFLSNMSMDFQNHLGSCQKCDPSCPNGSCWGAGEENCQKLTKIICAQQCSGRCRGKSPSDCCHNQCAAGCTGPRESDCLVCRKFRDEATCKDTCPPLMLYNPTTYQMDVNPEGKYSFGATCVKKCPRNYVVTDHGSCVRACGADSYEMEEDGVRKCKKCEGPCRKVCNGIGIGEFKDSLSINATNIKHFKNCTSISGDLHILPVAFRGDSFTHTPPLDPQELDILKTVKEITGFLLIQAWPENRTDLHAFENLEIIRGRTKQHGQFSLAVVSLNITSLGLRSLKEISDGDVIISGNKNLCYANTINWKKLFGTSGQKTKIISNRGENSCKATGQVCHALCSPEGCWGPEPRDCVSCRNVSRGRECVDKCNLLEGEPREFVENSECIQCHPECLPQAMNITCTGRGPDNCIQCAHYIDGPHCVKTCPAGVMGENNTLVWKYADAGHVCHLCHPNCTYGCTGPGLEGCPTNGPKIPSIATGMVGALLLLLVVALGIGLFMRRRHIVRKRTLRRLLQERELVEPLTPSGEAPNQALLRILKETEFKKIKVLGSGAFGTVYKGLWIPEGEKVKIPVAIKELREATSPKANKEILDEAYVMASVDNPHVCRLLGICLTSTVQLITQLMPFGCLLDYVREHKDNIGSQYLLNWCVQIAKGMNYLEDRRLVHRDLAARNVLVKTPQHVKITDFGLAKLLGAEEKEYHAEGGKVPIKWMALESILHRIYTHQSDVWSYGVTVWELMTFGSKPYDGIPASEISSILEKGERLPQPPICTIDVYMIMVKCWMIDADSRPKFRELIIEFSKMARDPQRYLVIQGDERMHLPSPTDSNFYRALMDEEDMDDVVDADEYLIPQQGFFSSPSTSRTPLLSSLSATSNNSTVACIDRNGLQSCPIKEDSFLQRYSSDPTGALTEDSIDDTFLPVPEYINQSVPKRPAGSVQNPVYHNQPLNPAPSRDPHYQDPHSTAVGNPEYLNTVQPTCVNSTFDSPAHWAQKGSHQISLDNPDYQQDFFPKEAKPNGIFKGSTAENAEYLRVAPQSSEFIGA

In the case of `Cc1ccc(C(=O)Nc2ccc(CN3CCN(C)CC3)c(C(F)(F)F)c2)cc1C#Cc1cnc2c(Nc3cnn(C)c3)cccn12` [Example 1, 4-methyl-3-((8-((1-methyl-1H-pyrazol-4-yl)amino)imidazo[1,2-a]pyridin-3-yl)ethynyl)-N-(4-((4-methylpiperazin-1-yl)methyl)-3-(trifluoromethyl)phenyl)benzamide], the remaining binding at 1 µM in assay [1] is 90%; in [2] it was 0%; in assay [3], 90%; in assay [4] it was 1%; in assay [5] it was 13%; in assay [6], 0%. Further, the remaining binding at 1 µM in assay [7] came out at 1%; in [8] it was 23%; in assay [9], 3%.

With `Cc1cn(-c2cc(NC(=O)c3ccc(C)c(C#Cc4cnc5c(Nc6cnn(C)c6)cccn45)c3)cc(C(F)(F)F)c2)cn1` [Example 12, 4-methyl-N-(3-(4-methyl-1H-imidazol-1-yl)-5-(trifluoromethyl)phenyl)-3-((8-((1-methyl-1H-pyrazol-4-yl)amino)imidazo[1,2-a]pyridin-3-yl)ethynyl)benzamide], the remaining binding at 1 µM worked out at 100% in [1]; 1% in assay [2]; 86% in assay [3]; 91% in assay [4]; 100% in [5]; 0% in assay [6]. Besides, the values for the remaining binding at 1 µM in assay [7], in [8] and in assay [9] were 21%, 84% and 28%, respectively.

With `Cc1ccc(NC(=O)C2(C(=O)Nc3ccc(F)cc3)CC2)cc1C#Cc1cnc2c(Nc3cnn(C(C)C)c3)cccn12` [Example 78], the remaining binding at 1 µM in assay [1], in assay [2], in [3], in assay [4], in assay [5] and in [6] was 100% in each case. Also, the figures for the remaining binding at 1 µM in assay [7], in assay [8] and in [9] were 63%, 98% and 85%, respectively.
